{"source": "patent US20250101038A1", "about": "“COMPOUNDS” (priority 2021, published 2025)", "test_system": "ARS-TST mouse model of depression", "experiment": "Acute restraint stress tail suspension test (ARS-TST)", "format": "in vivo", "conditions": "male ICR mice, intraperitoneal, tested 10 minutes after treatment", "protocol": "Male ICR mice (23±3 g) were purchased from BioLASCO (Taipei, Taiwan) at 4-5 weeks of age and allowed 5-7 days to acclimate to the animal research facility at Pharmacology Discovery Services (Taipei, Taiwan). Mice were housed in groups of 10 in a large cage (47×25×15 cm) on a 12-hour light cycle (lights on: 0700) and provided ad libitum food and water except during acute restraint stress and tail-suspension testing. Temperature was maintained at 20-24° C., and all rooms (colony and testing rooms) had similar lighting intensity. All aspects of this work including housing, experimentation, and animal disposal were performed in accordance with the “Guide for the Care and Use of Laboratory Animals: Eighth Edition” (The National Academies Press, Washington, DC, 2011) in a facility accredited by the Association for Assessment and Accreditation of Laboratory Animal Care. […]\nTail Suspension Test (TST) Procedure: Mice were individually suspended on the edge of a shelf, 58 cm above a tabletop, using adhesive tape placed approximately 1 cm from the tip of the tail, for a total duration of 7 minutes. Using a stopwatch, the experimenters blinded to treatment groups recorded the duration of immobility (defined as hanging passively and motionless) during the 5 minutes spanning from 2-7 minutes. The data from 0-2 minutes was not recorded. […]"}
{"compound": "CCN(C)CCc1c[nH]c2ccc(OC)c(C)c12", "note": "[Example P-37, N-ethyl-2-(5-methoxy-4-methyl-1H-indol-3-yl)-N-methylethan-1-amine]", "values": [{"measurement": "immobility time", "result": "decrease immobility time"}]}
{"compound": "CCN(C)CCc1c[nH]c2c(C)cc(OC)cc12", "note": "[Example P-51, N-ethyl-2-(5-methoxy-7-methyl-1H-indol-3-yl)-N-methylethan-1-amine]", "values": [{"measurement": "immobility time", "result": "decrease immobility time"}]}
